Experimental data reported in ChEMBL document CHEMBL1201862, “PubChem BioAssay data set” (2004).
Calls of active or inactive are those of the source.

Experiments:
[1] = biological target: Aminopeptidase N (Plasmodium falciparum FcB1/Columbia, UniProt O96935); assay: P. falciparum M1AAP inhibitors, biochemical, fluorogenic H-Leu-NHMec substrate, 1536-well (AID 1445); parameters: species or system Plasmodium falciparum 3D7, 3D7
[2] = biological target: Large T antigen (Simian virus 40, UniProt P03070); format: functional, Betapolyomavirus macacae;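 further: Confirmatory-stage PubChem screen for compounds that inhibit SV40 T antigen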
[3] = biological target: T1, Calpain-2 catalytic subunit (Sus scrofa, UniProt P43367); assay: pig calpain II inhibitor potency, dose response, biochemical, fluorogenic peptide substrate (AID 1420); format: functional
T1 sequence (P43367 whole entry): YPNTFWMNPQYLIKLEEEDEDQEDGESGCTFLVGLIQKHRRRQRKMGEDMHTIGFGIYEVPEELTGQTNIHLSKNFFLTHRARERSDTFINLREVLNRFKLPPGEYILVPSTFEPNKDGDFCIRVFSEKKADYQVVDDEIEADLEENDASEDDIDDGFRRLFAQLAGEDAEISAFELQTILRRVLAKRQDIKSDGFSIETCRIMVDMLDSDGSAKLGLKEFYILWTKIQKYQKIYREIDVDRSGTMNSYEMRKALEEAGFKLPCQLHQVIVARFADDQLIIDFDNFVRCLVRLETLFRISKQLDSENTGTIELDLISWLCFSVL

[4] = biological target: Bifunctional protein GlmU (Mycobacterium tuberculosis, UniProt P9WMN3); assay: Inhibitors of Mycobacterial Glucosamine-1-phosphate acetyl transferase (GlmU). Secondary screen.; parameters: species or system Mycobacterium tuberculosis H37Rv
[5] = biological target: Induced myeloid leukemia cell differentiation protein Mcl-1 (Homo sapiens, UniProt Q07820); format: functional
[6] = biological target: Intestinal-type alkaline phosphatase (Mus musculus, UniProt P24822); assay: PubChem AID 488785; format: functional
[7] = biological target: T2, Alkaline phosphatase, tissue-nonspecific isozyme (Homo sapiens, UniProt P05186); assay: TNAP enzyme inhibition by screening hits, dose response, selectivity assay for mouse IAP inhibitor project, biochemical, human TNAP, uHTS hits (AID 488906); format: functional
T2 sequence (P05186 whole entry): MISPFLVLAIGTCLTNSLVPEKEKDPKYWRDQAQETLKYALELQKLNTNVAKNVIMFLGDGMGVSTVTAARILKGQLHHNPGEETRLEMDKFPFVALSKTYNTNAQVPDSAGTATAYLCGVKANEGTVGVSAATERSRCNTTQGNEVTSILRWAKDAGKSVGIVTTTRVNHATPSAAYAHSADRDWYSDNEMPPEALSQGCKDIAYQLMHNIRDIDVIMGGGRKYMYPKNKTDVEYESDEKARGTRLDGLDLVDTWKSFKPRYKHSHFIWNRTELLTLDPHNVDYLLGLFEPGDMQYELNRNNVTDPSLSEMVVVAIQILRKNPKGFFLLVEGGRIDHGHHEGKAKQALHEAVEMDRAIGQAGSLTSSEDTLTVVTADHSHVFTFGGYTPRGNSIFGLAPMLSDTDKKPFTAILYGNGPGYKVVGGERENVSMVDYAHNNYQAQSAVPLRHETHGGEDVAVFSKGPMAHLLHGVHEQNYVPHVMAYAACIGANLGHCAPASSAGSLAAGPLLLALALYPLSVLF

[8] = biological target: Intestinal-type alkaline phosphatase (Homo sapiens, UniProt P09923); assay: inhibition of human intestinal alkaline phosphatase – biochemical, dose response (AID 488876); format: functional
[9] = biological target: T3, Hexokinase HKDC1 (Homo sapiens, UniProt Q2TB90); assay: HKDC1 hexokinase activators, dose response, biochemical, W721R variant (AID 504730); format: functional
T3 sequence (Q2TB90 whole entry): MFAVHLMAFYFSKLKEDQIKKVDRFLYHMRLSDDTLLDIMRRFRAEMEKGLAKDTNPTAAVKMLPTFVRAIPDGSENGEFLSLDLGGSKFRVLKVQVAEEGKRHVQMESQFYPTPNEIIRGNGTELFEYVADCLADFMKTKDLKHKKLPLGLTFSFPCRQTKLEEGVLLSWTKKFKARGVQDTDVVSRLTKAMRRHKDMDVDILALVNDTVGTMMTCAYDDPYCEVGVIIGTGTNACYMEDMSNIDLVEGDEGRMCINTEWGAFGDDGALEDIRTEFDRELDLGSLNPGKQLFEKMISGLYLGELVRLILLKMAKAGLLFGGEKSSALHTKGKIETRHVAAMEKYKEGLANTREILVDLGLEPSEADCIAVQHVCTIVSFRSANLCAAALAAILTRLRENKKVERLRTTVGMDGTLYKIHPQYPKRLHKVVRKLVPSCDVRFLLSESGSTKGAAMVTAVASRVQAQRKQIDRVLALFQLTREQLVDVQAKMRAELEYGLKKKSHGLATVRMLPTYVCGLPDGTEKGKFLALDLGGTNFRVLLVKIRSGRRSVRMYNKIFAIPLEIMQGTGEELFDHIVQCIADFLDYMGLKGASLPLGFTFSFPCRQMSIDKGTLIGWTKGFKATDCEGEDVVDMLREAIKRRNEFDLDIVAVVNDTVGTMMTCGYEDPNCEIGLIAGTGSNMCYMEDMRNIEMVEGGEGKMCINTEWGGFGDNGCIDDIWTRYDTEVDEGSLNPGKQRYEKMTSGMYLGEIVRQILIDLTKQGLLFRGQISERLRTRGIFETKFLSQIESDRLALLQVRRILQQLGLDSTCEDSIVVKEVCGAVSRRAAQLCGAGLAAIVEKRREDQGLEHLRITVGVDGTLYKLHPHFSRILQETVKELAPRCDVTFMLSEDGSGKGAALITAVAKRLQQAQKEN

[10] = biological target: Hexokinase-1 (Homo sapiens, UniProt P19367); assay: hexokinase 1 activators, dose response, selectivity assay for HKDC1 activator project, biochemical (AID 504762); format: functional
[11] = biological target: Lysine-specific demethylase 4C (Homo sapiens, UniProt Q9H3R0); assay: GASC-1 (JMJD2C) histone demethylase inhibitors, dose response, biochemical, DELFIA europium, cherry-picked samples (AID 488835); format: functional
[12] = biological target: T4, Bcl-2-related protein A1 (Mus musculus, UniProt Q07440); format: functional;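 further: confirmatory dose–response counterscreen on Bfl-1, used to check hits from a UBC13 polyubiquitin inhibitor campaign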
T4 sequence (Q07440 whole entry): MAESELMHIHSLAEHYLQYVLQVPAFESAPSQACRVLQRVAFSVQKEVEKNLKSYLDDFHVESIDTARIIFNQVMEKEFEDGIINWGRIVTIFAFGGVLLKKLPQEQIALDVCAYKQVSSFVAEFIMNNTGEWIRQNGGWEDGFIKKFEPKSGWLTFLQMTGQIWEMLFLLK

[13] = biological target: T5, Ubiquitin-conjugating enzyme E2 N (Homo sapiens, UniProt P61088); format: functional
T5 sequence (P61088 whole entry): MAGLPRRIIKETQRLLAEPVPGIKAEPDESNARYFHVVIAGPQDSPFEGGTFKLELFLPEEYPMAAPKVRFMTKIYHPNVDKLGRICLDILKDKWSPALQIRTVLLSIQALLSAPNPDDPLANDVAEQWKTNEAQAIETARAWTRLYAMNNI

[14] = biological target: T5, Ubiquitin-conjugating enzyme E2 N; format: functional; remark: listed apart in the source
[15] = Luminescence Cell-Based Dose Response HTS to Identify Inhibitors of Luciferase Translation or Activity in H4-C Neuroglioblastoma Cells. [Related pubchem assays: 1813 (Primary HTS), 1827 (Project Summary)]; format: functional
[16] = Luminescence Cell-Based Dose Response HTS to Identify Activators of Luciferase Translation or Activity in H4-C Neuroglioblastoma Cells. [Related pubchem assays: 1829 (Project Summary), 1814 (Primary HTS)]; format: functional
[17] = Luminescence Cell-Based Dose Retest to Confirm Activators of 5'UTR Stem-Loop Driven Alpha-Synuclein mRNA Translation in H4 Neuroglioblastoma Cells. [Related pubchem assays (depositor defined):AID1813, AID1829]; format: functional
[18] = Luminescence Cell-Based Dose Response HTS to Identify Activators of 5'UTR Stem-Loop Driven Prion Protein mRNA Translation in H4-C Neuroglioblastoma Cells. [Related pubchem assays: 1829 (Project Summary), 1814 (Primary HTS)]; format: functional
[19] = Luminescence Cell-Based Dose HTS Response to Identify Inhibitors of 5'UTR Stem-Loop Driven Prion Protein mRNA Translation in H4-C Neuroglioblastoma Cells. [Related pubchem assays (depositor defined):AID1814, AID1827]; format: functional
[20] = Luminescence Cell-Based Dose Confirmation HTS to Identify Inhibitors of 5'UTR Stem-Loop Driven Alpha-Synuclein mRNA Translation in H4 Neuroglioblastoma Cells. [Related pubchem assays: 1827 (Project Summary), 1813 (Primary HTS)]; format: functional
[21] = biological target: Signal transducer and activator of transcription 3 (Homo sapiens, UniProt P40763); assay: STAT3 inhibitors, late-stage profile, late-stage follow-up, cell-based, STAT1 panel, qPCR, cytotoxicity, panel member STAT3 Inhibition (AID 2078)
[22] = biological target: Signal transducer and activator of transcription 1-alpha/beta (Homo sapiens, UniProt P42224); assay: STAT3 inhibitors, late-stage profile, late-stage follow-up, cell-based, STAT1 panel, qPCR, cytotoxicity, panel member STAT1 Inhibition (AID 2078)
[23] = biological target: T6, G-protein coupled receptor 35 (Homo sapiens, UniProt Q9HC97); assay: SAR analysis of Agonists of the GPR35 Receptor using an Image-Based Assay - Set 4. [Related pubchem assays (depositor defined):AID2013, AID2026]; format: functional
[24] = biological target: T7, Cannabinoid receptor 1 (Homo sapiens, UniProt P21554); assay: SAR analysis of agonists of the Cannabinoid Receptor 1 using an Image-Based Assay - Set 4. [Related pubchem assays (depositor defined):AID2013, AID2026]; format: functional
[25] = biological target: T6, G-protein coupled receptor 35; assay: SAR analysis of Antagonists of the GPR35 Receptor using an Image-Based Assay - Set 6. [Related pubchem assays (depositor defined):AID2013, AID2026]; format: functional
[26] = biological target: T7, Cannabinoid receptor 1; assay: SAR analysis of antagonists of the Cannabinoid Receptor 1 using an Image-Based Assay - Set 4. [Related pubchem assays (depositor defined):AID2013, AID2026]; format: functional
[27] = biological target: T8, G-protein coupled receptor 55 (Homo sapiens, UniProt Q9Y2T6); assay: SAR Analysis of Selective Antagonists of GPR55 using an Image-Based Assay - Set 4. [Related pubchem assays (depositor defined):AID2013, AID2026]; format: functional
[28] = biological target: T9, Cannabinoid receptor 2 (Homo sapiens, UniProt P34972); assay: SAR analysis of antagonists of the Cannabinoid Receptor 2 using an Image-Based Assay - Set 3. [Related pubchem assays (depositor defined):AID2013, AID2026]; format: functional
[29] = biological target: T9, Cannabinoid receptor 2; assay: SAR analysis of agonists of the Cannabinoid Receptor 2 using an Image-Based Assay - Set 3. [Related pubchem assays (depositor defined):AID2013, AID2026]; format: functional
[30] = biological target: Kappa-type opioid receptor (Homo sapiens, UniProt P41145); assay: SAR analysis of small molecule agonists of the kappa opioid receptor via a luminescent beta-arrestin assay - Set 3. [Related pubchem assays (depositor defined):AID1777, AID1785, AID1786, AID1966, AID2133, AID2136, AID2284, AID2500]; format: functional
[31] = biological target: T8, G-protein coupled receptor 55; assay: GPR55 antagonists, SAR follow-up, counter-screen for GPR35 antagonist project, imaging, image-based (AID 2397); format: functional

T7 sequence (P21554 whole entry): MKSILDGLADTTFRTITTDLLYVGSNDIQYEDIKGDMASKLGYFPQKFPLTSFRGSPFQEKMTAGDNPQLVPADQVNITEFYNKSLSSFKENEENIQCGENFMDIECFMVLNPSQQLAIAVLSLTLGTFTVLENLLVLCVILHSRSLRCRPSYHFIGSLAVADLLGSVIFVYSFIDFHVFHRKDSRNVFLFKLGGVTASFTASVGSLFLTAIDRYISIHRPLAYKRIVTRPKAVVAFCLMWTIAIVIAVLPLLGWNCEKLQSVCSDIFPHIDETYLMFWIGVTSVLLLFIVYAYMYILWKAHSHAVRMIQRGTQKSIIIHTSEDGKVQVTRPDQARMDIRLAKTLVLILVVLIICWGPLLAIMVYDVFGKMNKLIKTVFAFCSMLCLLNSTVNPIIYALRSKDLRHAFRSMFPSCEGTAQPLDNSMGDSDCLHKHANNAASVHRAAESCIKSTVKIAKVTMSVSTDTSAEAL
T9 sequence (P34972 whole entry): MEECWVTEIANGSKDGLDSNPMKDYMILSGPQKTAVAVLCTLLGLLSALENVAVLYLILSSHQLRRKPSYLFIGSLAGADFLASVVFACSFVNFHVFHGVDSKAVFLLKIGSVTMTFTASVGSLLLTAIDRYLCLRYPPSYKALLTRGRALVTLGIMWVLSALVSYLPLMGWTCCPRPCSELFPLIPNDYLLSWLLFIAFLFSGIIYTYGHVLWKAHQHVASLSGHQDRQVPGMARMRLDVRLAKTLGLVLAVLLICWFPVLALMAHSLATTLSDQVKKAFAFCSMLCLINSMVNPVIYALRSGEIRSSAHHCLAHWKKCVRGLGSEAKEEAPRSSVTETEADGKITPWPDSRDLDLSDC
T8 sequence (Q9Y2T6 whole entry): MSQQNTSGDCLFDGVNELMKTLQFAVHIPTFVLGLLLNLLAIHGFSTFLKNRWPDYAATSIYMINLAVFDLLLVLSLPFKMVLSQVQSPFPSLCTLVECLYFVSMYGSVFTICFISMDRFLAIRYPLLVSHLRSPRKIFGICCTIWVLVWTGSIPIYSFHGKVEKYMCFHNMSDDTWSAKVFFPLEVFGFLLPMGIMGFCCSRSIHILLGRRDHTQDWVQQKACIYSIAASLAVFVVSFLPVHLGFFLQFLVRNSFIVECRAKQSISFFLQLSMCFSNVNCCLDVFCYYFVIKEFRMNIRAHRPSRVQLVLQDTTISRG
T6 sequence (Q9HC97 whole entry): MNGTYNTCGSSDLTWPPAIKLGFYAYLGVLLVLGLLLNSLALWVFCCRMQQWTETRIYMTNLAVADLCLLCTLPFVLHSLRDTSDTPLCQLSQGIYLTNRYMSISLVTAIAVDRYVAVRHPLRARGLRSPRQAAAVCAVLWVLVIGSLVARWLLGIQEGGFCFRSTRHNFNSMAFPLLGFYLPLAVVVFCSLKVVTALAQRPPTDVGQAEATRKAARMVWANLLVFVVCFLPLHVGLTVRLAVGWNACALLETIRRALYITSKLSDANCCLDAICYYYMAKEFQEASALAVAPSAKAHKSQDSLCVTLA
Chain of Aminopeptidase N (O96935 whole entry): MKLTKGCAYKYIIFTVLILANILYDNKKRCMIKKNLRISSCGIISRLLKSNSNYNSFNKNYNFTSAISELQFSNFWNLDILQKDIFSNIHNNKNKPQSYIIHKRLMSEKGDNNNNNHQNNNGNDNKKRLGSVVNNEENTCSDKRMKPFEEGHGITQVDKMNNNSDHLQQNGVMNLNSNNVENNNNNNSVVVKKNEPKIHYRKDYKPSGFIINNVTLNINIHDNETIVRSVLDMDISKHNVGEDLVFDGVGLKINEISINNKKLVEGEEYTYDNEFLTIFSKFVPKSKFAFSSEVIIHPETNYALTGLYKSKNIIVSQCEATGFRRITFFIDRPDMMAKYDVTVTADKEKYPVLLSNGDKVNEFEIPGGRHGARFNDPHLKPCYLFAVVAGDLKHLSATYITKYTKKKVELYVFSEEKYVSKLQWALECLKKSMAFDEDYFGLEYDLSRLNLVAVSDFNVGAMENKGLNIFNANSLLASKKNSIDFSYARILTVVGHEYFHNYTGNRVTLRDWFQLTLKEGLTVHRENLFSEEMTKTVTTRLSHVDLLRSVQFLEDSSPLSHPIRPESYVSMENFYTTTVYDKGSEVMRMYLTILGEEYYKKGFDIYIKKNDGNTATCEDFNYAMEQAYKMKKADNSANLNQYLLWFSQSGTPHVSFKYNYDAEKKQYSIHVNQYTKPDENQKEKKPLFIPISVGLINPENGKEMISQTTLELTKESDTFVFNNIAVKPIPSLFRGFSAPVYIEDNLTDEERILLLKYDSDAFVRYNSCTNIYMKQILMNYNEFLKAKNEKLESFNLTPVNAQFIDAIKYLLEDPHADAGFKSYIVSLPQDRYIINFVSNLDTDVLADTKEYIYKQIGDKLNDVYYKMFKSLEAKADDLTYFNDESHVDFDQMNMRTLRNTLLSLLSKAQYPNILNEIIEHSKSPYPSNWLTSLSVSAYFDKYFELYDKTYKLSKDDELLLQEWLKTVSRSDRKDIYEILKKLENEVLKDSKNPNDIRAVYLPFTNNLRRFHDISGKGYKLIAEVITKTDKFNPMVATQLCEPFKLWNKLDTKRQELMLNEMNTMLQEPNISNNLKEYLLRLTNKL
Chain of Lysine-specific demethylase 4C (Q9H3R0 whole entry): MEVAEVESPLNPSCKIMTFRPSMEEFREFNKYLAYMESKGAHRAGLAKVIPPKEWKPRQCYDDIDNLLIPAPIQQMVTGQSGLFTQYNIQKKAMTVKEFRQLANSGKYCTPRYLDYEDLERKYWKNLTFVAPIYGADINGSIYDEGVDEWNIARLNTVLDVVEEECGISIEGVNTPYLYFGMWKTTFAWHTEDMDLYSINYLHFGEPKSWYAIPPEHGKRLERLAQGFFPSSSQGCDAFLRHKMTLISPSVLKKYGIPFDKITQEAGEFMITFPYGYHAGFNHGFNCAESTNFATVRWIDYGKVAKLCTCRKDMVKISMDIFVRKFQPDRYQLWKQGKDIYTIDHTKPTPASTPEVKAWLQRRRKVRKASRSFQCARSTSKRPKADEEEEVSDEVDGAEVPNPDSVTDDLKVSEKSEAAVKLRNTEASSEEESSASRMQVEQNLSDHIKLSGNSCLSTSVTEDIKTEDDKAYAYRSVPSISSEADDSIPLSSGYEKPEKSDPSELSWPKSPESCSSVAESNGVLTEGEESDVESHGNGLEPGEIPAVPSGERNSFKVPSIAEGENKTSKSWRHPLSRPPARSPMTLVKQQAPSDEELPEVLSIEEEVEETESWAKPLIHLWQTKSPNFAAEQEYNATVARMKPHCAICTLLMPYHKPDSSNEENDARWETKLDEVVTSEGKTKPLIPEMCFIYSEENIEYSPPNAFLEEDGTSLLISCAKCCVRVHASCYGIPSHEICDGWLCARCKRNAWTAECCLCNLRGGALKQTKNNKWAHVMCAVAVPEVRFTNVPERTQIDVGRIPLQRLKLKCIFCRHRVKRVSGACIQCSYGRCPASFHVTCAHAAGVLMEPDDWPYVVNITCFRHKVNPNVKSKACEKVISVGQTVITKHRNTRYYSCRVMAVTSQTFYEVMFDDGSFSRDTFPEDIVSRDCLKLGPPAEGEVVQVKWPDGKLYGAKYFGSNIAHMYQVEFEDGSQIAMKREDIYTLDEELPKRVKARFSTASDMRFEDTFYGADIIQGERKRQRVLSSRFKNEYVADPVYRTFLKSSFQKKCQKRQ
Chain of Bifunctional protein GlmU (P9WMN3 whole entry): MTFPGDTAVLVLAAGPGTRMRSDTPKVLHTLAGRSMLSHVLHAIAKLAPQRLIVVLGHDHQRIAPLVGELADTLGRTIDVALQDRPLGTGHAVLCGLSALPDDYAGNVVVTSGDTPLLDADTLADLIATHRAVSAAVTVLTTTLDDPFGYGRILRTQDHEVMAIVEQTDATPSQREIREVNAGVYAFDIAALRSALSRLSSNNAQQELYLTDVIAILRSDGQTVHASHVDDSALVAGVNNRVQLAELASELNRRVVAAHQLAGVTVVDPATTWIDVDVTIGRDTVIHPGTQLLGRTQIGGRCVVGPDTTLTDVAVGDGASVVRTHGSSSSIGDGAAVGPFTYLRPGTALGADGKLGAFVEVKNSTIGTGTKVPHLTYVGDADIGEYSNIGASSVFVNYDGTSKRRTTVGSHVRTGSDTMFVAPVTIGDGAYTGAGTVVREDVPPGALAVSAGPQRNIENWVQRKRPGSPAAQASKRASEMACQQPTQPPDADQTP
Chain of Kappa-type opioid receptor (P41145 whole entry): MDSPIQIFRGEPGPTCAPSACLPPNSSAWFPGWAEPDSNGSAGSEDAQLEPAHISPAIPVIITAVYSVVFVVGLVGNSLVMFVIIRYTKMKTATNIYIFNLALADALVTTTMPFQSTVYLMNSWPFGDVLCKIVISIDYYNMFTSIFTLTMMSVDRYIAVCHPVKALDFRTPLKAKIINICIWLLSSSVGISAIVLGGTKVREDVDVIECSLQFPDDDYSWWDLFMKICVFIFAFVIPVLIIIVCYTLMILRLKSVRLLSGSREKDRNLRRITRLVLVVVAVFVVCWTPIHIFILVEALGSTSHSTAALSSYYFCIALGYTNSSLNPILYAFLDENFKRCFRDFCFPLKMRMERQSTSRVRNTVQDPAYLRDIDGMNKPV
Chain of Intestinal-type alkaline phosphatase (Homo sapiens, UniProt P09923) (P09923 whole entry): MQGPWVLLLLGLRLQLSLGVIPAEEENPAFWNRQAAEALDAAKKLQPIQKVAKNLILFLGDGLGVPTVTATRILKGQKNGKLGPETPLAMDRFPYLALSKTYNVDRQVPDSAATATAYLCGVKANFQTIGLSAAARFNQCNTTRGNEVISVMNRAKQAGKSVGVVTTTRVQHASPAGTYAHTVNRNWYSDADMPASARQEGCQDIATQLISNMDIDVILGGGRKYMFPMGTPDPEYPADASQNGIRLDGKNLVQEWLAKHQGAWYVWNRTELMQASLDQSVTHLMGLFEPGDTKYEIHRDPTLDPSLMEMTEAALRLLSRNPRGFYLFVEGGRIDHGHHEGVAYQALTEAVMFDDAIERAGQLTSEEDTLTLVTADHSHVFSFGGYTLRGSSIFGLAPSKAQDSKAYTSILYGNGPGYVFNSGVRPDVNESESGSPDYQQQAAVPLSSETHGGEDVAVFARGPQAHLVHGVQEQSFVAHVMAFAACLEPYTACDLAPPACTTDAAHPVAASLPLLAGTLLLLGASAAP

## O=C(NN1C(=O)/C(=C/C=C/c2ccco2)SC1=S)c1ccccc1O
[1]
  IC50: 73.5 µM (active)
[2]
  IC50: 18.8 µM (active)
[3]
  IC50: 47.6 µM (not active)
[4]
  IC50: 80.6 µM (active)
[5]
  IC50: 2.42 µM (active)
[6]
  IC50: 15.8 µM (active)
[7]
  IC50: 25.9 µM (active)
[8]
  IC50: 30.7 µM (active)

## CCc1c(C)c(C#N)c2nc3ccccc3n2c1NC
[9]
  EC50: 44.8 µM (inactive)
[10]
  EC50: 21.1 µM (inactive)

## CN1C(=O)N(C)C(=O)C2(Cc3ccccc3N3CCCC32)C1=O (stereo unspecified)
[11]
  AC50: 14.2 µM (active)

## CN(C)CCCN(C(=O)c1ccc(S(=O)(=O)N2CCCCCC2)cc1)c1nc2ccc(Br)cc2s1
[12]
  IC50: > 20 µM (inactive)
[13]
  IC50: 13.4 µM (active)
[14]
  IC50: 10.3 µM (active)

## COC(=O)c1c(NC(=O)c2ccc([N+](=O)[O-])o2)sc2c1CCN(C(C)C)C2
[15]
  EC50: 1.33 µM (active)
[16]
  EC50: 2.12 µM (inconclusive)
[17]
  EC50: 1.88 µM (inconclusive)
[18]
  EC50: 2.23 µM (inconclusive)
[19]
  EC50: 2.94 µM (active)
[20]
  EC50: 3.35 µM (active)

## O=C(c1ccc(Cl)cc1)C1CCN(c2ncnc3sccc23)CC1
[21]
  IC50: 0.837 µM (active)
[22]
  IC50: > 55.7 µM (inactive)

## O=C(Cc1ccc2c(c1)OCO2)N1CCC(n2nc(-c3ccccc3)oc2=O)CC1
[23]
  EC50: > 32 µM (inactive)
[24]
  EC50: > 32 µM (inactive)
[25]
  IC50: > 32 µM (inactive)
[26]
  IC50: 15.8 µM (inactive)
[27]
  IC50: > 32 µM (inactive)
[28]
  IC50: > 32 µM (inactive)
[29]
  EC50: > 32 µM (inactive)

## Clc1ccccc1Cn1c(SCc2ccccc2)nnc1-c1ccccn1
[30]
  EC50: > 20 µM (inactive)

## Clc1ccc(Cn2ncc3c(N4CCN(c5cccc(Cl)c5)CC4)ncnc32)cc1
[31]
  IC50: > 32 µM (inactive)
